In patent US10295528B2, “Method of screening ATP11C or CDC50A inhibitor” (KYOTO UNIVERSITY, priority 2014, dated 2019):

How the values were obtained:
[1] = system: ATP11C; assay: FasL-induced ATP11C cleavage in W3 cells, Western blotting with anti-mATP11C; assay type: cell-based, mouse; conditions: 1 h FasL, 20 μM QVD-Oph, membrane fractions
Protocol: FIG. 3D Cleavage of ATP11C by caspase (D). W3 and ATP11C^ED22 were incubated for 1 h with FasL in the presence or absence of 20 μM QVD-Oph. Membrane fractions were analyzed by Western blotting with anti-mATP11C or anti-mFas. Upper and middle panels: the blot with anti-mATP11C, where exposure time is longer in the middle panel.
Cells or membrane fractions were lysed in RIPA buffer ([…] (pH 8.0) containing 1% MP-40, 0.1% SDS, 0.5% sodium deoxycholate, 150 mM NaCl, and a cocktail of protease inhibitors (cOmplete, Mini, EDTA-free, Roche Diagnostics)). After removing insoluble materials by centrifugation, the lysates were mixed […] with 3×SDS sample buffer (200 mM Tris-HCl [pH 6.8], 10% SDS, 25% glycerol, 15% β-mercaptoethanol, and 0.05% bromophenol blue), and incubated at room temperature for 20 min. Proteins cere separated by SDS-PAGE using a 7.5% or 10-20% gradient gel (Bio Graft), and transferred to a PVDF membrane (Millipore). The membranes were probed with mouse anti-GFP mAb, rabbit anti-active caspase-3 mAb, rabbit anti-hATP11C Ab, rabbit anti-α-tubulin mAb, or rat anti-mFas mAb, followed by incubation with HRP-conjugated goat anti-mouse Igs, goat anti-rabbit Igs or rabbit anti-rat Igs (Dako). The peroxidase activity was detected by the Western Lightning-ECL system (PerkinElmer).

[2] = system: ATP11C^GT; assay: Internalization of NBD lipids (flippase activity), flow cytometry; assay type: cell-based, human; conditions: KBM7-derived ATP11C^GT cells, 20 min with NBD-PS with or without vanadate, MFI
Protocol: FIG. 2D Requirement of ATP11C and CDC50A for flippase activity (D), KBM7, ATP11C^GT, and CDC50A^GT were incubated for 20 min with NBD-PS with or without an ATPase inhibitor vanadate, and analyzed by flow cytometry. MFI was plotted (n=3).
Cells (2×10^6) were incubated with 1.5 μM NBD-PS, NBD-PE, or NBD-PC at 25° C. for 15-20 min in 600 μl of HBSS containing 1 mM MgCl2 and 2.5 mM CaCl2. After incubation, the cells were collected by centrifugation, resuspended in HBSS containing 5 mg/ml fatty-acid-free BSA, and analyzed by a FACSAria II. To determine the scramblase activity, 1.5×10^6 cells were incubated at 25° C. for 4 min with 0.5 μM NBD-PC.

[3] = system: CDC50A^ED29; assay: In vitro phagocytosis assay: thio-pMac engulfment of pHrodo-labeled cells; assay type: cell-based, mouse; conditions: 2 h incubation, 4 μg/ml MFG-E8 D89E
Protocol: FIG. 6A Engulfment of PtdSer-exposing viable cells (A). Thio-pMacs were incubated for 2 h with pHrodo-labeled W3-Ildm, CDC50A^ED29, its hCDC50A transformant (CDC50A^ED29-hCDC50A), or W3-D430G-L in the presence or absence of 4 μg/ml of MFG-E8 D89E, and analyzed by FACS.
To prepare thioglycollate-elicited peritoneal macrophages (thio-pMacs), female C57BL/6J mice at 7-12 weeks of age were injected intraperitonealiy with 60 mg of thioglycollate (Sigma-Aldrich), and peritoneal macrophages were collected 4 days later. Phagocytosis was assayed by following the transport of pHrodo-stained prey into macrophage lysosomes (50, 51). In brief, 5×10^5 thio-pMacs were grown overnight in 12-well plates (Corning). Growing or apoptotic cells (2.0×10^7) were washed with PBS and incubated with 40 ng/ml pHrodo for 10 min at room temperature. After stopping the reaction with 2 ml FCS, the cells were washed with IMDM containing 10% FCS, added to the macrophages in the medium containing 1% methyl cellulose (Sigma-Aldrich), spun at 500×g for 4 min at room temperature using a swinging rotor, and incubated at 37° C. The macrophages were detached from the plate by treatment with 0.25% trypsin, stained with APC-conjugated rat anti-mouse Mac1, suspended in 20 mM CHES-NaOH buffer (pH 9.0) containing 150 mM NaCl, 2% PCS, and 200 nM Sytox blue, and analyzed by flow cytometry using the FACSCanto II. […]

CC(C)[C@H](NC(=O)c1ccc2ccccc2n1)C(=O)N[C@@H](CC(=O)O)C(=O)COc1c(F)cccc1F [Q-VD-OPh]
FasL-caused shift in ATP11C's mobility (from 120 to 50 kDa) [1]: prevented

[O]=[V]([O-])([O-])[O-] [orthovanadate]
incorporation of phospholipids in ATP11C^GT [2]: inhibited

B1: D89E mutant of MFG-E8: D89E mutant of MFG-E8, which masks PtdSer; produced in HEK293T cells (protein, UniProt P21956 23-463, looked up, variant D89E)
Lactadherin: ASGDFCDSSLCLNGGTCLTGQDNDIYCLCPEGFTGLVCNETERGPCSPNPCYNDAKCLVTLDTQRGEIFTEYICQCPVGYSGIHCETETNYYNLDGEYMFTTAVPNTAVPTPAPTPDLSNNLASRCSTQLGMEGGAIADSQISASSVYMGFMGLQRWGPELARLYRTGIVNAWTASNYDSKPWIQVNLLRKMRVSGVMTQGASRAGRAEYLKTFKVAYSLDGRKFEFIQDESGGDKEFLGNLDNNSLKVNMFNPTLEAQYIKLYPVSCHRGCTLRFELLGCELHGCSEPLGLKNNTIPDSQMSASSSYKTWNLRAFGWYPHLGRLDNQGKINAWTAQSNSAKEWLQVDLGTQRQVTGIITQGARDFGHIQYVASYKVAHSDDGVQWTVYEEQGSSKVFQGNLDNNSHKKNIFEKPFMARYVRVLPVSWHNRITLRLELLGC
engulfment of CDC50A^ED29 by thio-pMacs [3]: inhibited
